Results on five compounds are retold here after publication PMC7999549, “PBP4 Is Likely Involved in Cell Division of the Longitudinally Dividing Bacterium Candidatus Thiosymbion Oneisti” (Antibiotics, 2021).

The target of test [1] is T1, PBP4^TO (Candidatus Thiosymbion oneisti, UniProt Z9LUN3GEC2).
T1 sequence (Z9LUN3GEC2 31-414 limits assumed): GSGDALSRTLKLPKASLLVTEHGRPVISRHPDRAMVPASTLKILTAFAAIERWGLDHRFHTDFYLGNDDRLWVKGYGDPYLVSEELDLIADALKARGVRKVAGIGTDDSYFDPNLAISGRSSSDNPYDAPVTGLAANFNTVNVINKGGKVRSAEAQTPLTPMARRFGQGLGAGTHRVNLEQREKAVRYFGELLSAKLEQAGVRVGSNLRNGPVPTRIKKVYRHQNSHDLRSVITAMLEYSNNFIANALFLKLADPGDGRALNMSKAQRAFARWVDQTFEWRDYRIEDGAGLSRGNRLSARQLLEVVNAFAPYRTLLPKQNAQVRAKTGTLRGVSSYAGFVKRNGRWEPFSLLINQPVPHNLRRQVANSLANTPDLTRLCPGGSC
Nature of the test: Bocillin-FL competition, SDS-PAGE fluorescence. The conditions noted are these: pH 7.5, 50 mM NaCl, 10 mM MgCl2, 28 °C, 20 min before 15 μg/mL Bocillin-FL (30 min).

For test [2], the target named is T1, PBP4^TO. The experiment in a line: Bocillin-FL labelling, SDS-PAGE fluorescence. It counts as binding. Also on record: His-tagged, expressed in cytoplasm of E. coli SF100 (plasmid pJW06, pET302 vector named); gene 1245 nt, 414 aa; dimers and higher oligomers on native PAGE. As to conditions: pH 7.5, 50 mM NaCl, 10 mM MgCl2, 28 °C, 30 min; covalent.

Regarding `NC(=O)c1cc[n+](CC2=C(C(=O)[O-])N3C(=O)[C@@H](NC(=O)[C@@H](c4ccccc4)S(=O)(=O)O)[C@H]3SC2)cc1` [cefsulodin], the “Bocillin-FL competition, SDS-PAGE fluorescence” value (from here on “Bocillin-FL competition”) at PBP4^TO [1] (weak binder) is on record as “cefsulodin, PBP2 inhibitor mecillinam, PBP4 inhibitor cephalexin”. In the case of `CC1(C)S[C@@H]2[C@H](NC(=O)Cc3ccccc3)C(=O)N2[C@H]1C(=O)O` [penicillin G], at PBP4^TO [1], the “Bocillin-FL competition” value is given as “penicillin G had a similar affinity for PBP4^TO as for PBP4^EC”.

For `CC1=CC(C)=[N+]2C1=Cc1ccc(CCC(=O)Nc3ccc(OCC(=O)N[C@@H]4C(=O)N5[C@@H]4SC(C)(C)[C@@H]5C(=O)O)cc3)n1[B-]2(F)F` [Bocillin-FL], the “Bocillin-FL labelling, SDS-PAGE fluorescence” value at PBP4^TO [2] was “Purified PBP4^TO protein was detectable after Bocillin-FL labeling”. With `C[C@@H](O)[C@H]1C(=O)N2C(C(=O)O)=C(S[C@@H]3CN[C@H](C(=O)N(C)C)C3)[C@H](C)[C@H]12` [meropenem], the “Bocillin-FL competition” value on PBP4^TO [1] (possible allosteric second site at high concentration) is “does present some affinity for PBP4^TO, whereas Bocillin-FL intensity is enhanced with high-concentration treatment”. Consider `CC1(C)S[C@@H]2[C@H](N=CN3CCCCCC3)C(=O)N2[C@H]1C(=O)O` [mecillinam], for which the “Bocillin-FL competition” value at PBP4^TO [1] (weak binder) was “PBP2 inhibitor mecillinam, PBP4 inhibitor cephalexin”.
